# According to patent US20120165319A1, “INHIBITORS OF INTERLEUKIN-1 BETA CONVERTING ENZYME” (VERTEX PHARMACEUTICALS INCORPORATED, priority 1995, published 2012):
# Like-named read-outs stand apart in the source and are kept apart here.
# Key:
# IL-1β, human whole blood = experiment: Whole blood assay for IL-1β production; assay type: cell-based; settings: read-out: Whole human blood IC50
# Summary of the method: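 Human whole blood collected on Na2EDTA was treated with serially diluted compound in saline and then stimulated with LPS at 5.0 ng/ml final, for 16-18 h at 30 °C, in duplicate or triplicate. Plasma IL-1β was measured by ELISA at 1:200 dilution.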
# [1] = system: IL-1β, human peripheral blood mononuclear cells (PBMC); experiment: PBMC cell assay: IL-1β assay with human PBMC or enriched adherent mononuclear cells, LPS-stimulated; assay type: cell-based
# Summary of the method: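 Buffy-coat human PBMC at 6×10^6 cells/ml, or adherent monocytes enriched by 1 h adherence (2.5−3.0×10^5 cells/well), are given 5–6 compound dilutions bracketing the ICE Ki (final DMSO 0.1%) plus LPS at a final 5 ng/ml. They are incubated 16–18 hr at 37 °C, 5% CO2, and supernatant mature IL-1β is measured by ELISA, with duplicate cultures and duplicate ELISAs.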
# [2] = Homo sapiens, * = values obtained upon reassay
# [3] = Homo sapiens, PBMC, * = values obtained upon reassay
# [4] = * = values obtained upon reassay
SMILES,"IC50 (IL-1β, human whole blood; [2]) [nM]","IC50 [1, 3] [nM]","IC50 (IL-1β, human whole blood; Homo sapiens, Table 17) [nM]","IC50 ([1]; Homo sapiens, PBMC, Table 17) [nM]","IC50 (IL-1β, human whole blood; [4]) [nM]","IC50 [1, 4] [nM]"
"O=C(O)C[C@H](NC(=O)[C@@H]1CCCN2C(=O)CC[C@H](NC(=O)c3ccccc3)C(=O)N12)C(=O)COc1cccnc1 [Compound 283, [3S(1S,9S)]3-[9-Benzoylamino-6,10-dioxo-1,2,3,4,7,8,9,10-octahydro-6H-pyridazino[1,2-a][1,2]diazepine-1-carboxamido]-4-oxo-5-(3-pyridyloxy)pentanoic acid]",450,< 200,–,–,–,–
"CCOC1OC(=O)C[C@@H]1NC(=O)[C@@H]1CCCN2C(=O)CC[C@H](NC(=O)c3ccccc3)C(=O)N12 (stereo partly drawn) [Compound 2100e, [1S,9S(2RS,3S)]9-Benzoylamino-6,10-dioxo-1,2,3,4,7,8,9,10-octahydro-N-(2-ethoxy-5-oxo-tetrahydro-furan-3-yl)-6H-pyridazino[1,2-a][1,2]-diazepine-1-carboxamide]",600,800,–,–,–,–
"O=C1C[C@H](NC(=O)[C@@H]2CCCN3C(=O)CC[C@H](NC(=O)c4ccccc4)C(=O)N23)C(OCCc2ccccc2)O1 (mixture of isomers) [Compound 2100k, [1S,9S(2RS,3S)]9-Benzoylamino-6,10-dioxo-1,2,3,4,7,8,9,10-octahydro-N-(2-phenethyloxy-5-oxotetrahydrofuran-3-yl)-6H-pyridazino[1,2-a][1,2]diazepine-1-carboxamide]",–,–,600,4000,–,–
O=C[C@H](CC(=O)O)NC(=O)[C@@H]1CCCN2C(=O)CC[C@H](NC(=O)c3ccc4nc[nH]c4c3)C(=O)N12 [Compound 434],1800,1600,–,–,1300,1200
"O=C(O)C[C@H](NC(=O)[C@@H]1CCCN2C(=O)CC[C@H](NC(=O)c3ccccc3)C(=O)N12)C(=O)c1nc2cc(Cl)cc(Cl)c2o1 [Compound 223e, [3S(1S,9S)]3-(9-Benzoylamino-6,10-dioxo-1,2,3,4,7,8,9,10-octahydro-6H-pyridazino-[1,2-a][1,2]diazepine-1-carboxamido)-4-(5,7-dichlorobenzoxazol-2-yl)-4-oxobutanoic acid]",> 20000,3000,–,–,–,–
"O=C(O)C[C@H](NC(=O)[C@@H]1CCCN2C(=O)CC[C@H](NC(=O)c3ccccc3)C(=O)N12)C(=O)CSCc1ccccc1Cl [Compound 226e, [3S(1S,9S)]3-(9-Benzoylamino-6,10-dioxo-1,2,3,4,7,8,9,10-octahydro-6H-pyridazino[1,2-a][1,2]-diazepine-1-carboxamido)-5-(2-chlorophenyl)methylthio-4-oxopentanoic acid]",1800,1100,–,–,–,–
"O=C1C[C@H](NC(=O)[C@@H]2CCCN3C(=O)CC[C@H](NC(=O)c4ccccc4)C(=O)N23)C(OCc2ccccc2)O1 (stereo partly drawn) [Compound 213e, [1S,9S(2RS,3S)]9-Benzoylamino-6,10-dioxo-1,2,3,4,7,8,9,10-octahydro-N-(2-benzyloxy-5-oxotetrahydrofuran-3-yl)-6H-pyridazino[1,2-a][1,2]-diazepine-1-carboxamide]",600,900,–,–,400,–
O=C[C@H](CC(=O)O)NC(=O)[C@@H]1CCCN2C(=O)CC[C@H](NC(=O)c3cc4ccsc4s3)C(=O)N12 [Compound 442],2000,900,–,–,–,–
"O=C[C@H](CC(=O)O)NC(=O)[C@@H]1CCCN2C(=O)CCN(NC(=O)c3ccc4c(c3)OCO4)C(=O)N12 [Compound 1015, [3S(4S)]3-[6,10-Dioxo-7-(3,4-methylenedioxybenzoylamino)-1,2,3,4,7,8,9,10-octahydro-6H-pyridazino[1,2-a][1,2,4]triazepine-4-carboxamido]-4-oxobutanoic acid]",1700,2500,–,–,–,–
CN(C)c1ccc(C(=O)N[C@H]2CCC(=O)N3CCC[C@@H](C(=O)N[C@H](C=O)CC(=O)O)N3C2=O)cc1 [Compound 471],400,750,–,–,–,–
"COc1cc(C(=O)N[C@H]2CCC(=O)N3CCC[C@@H](C(=O)N[C@H](C=O)CC(=O)O)N3C2=O)cc(OC)c1OC [Compound 417, [3S(1S,9S)]3-[6,10-Dioxo-1,2,3,4,7,8,9,10-octahydro-9-(3,4,5-trimethoxybenzoylamino)-6H-pyridazino[1,2-a][1,2]diazepine-1-carboxamido]-4-oxobutanoic acid]",6000,2000,–,–,–,–
"COC(=O)N[C@H]1CCC(=O)N2CCC[C@@H](C(=O)N[C@@H](CC(=O)O)C(=O)COC(=O)c3c(Cl)cccc3Cl)N2C1=O [Compound 284, [3S(1S,9S)]5-(2,6-Dichlorobenzoyloxy)-3-[6,10-dioxo-9-(methoxycarbonyl)amino-1,2,3,4,7,8,9,10-octahydro-6H-pyridazino[1,2-a][1,2]diazepine-1-carboxamido]-4-oxopentanoic acid]",550,470,–,–,–,–
"O=C1C[C@H](NC(=O)[C@@H]2CCCN3C(=O)CC[C@H](NC(=O)c4ccccc4)C(=O)N23)[C@H](OCc2ccccc2)O1 [Compound 2100o, [1S,9S(2R,3S)]9-Benzoylamino-N-(2-benzyloxy-5-oxotetrahydrofuran-3-yl)-6,10-dioxo-1,2,3,4,7,8,9,10-octahydro-6H-pyridazino[1,2-a][1,2]diazepine-1-carboxamide]",–,–,1500,1150,–,–
"COCC(=O)N1C[C@H](NC(=O)c2cccc3ccccc23)C(=O)N(CC(=O)N[C@H](C=O)CC(=O)O)c2ccccc21 [Compound 2201, (3S)-3-[(3S)-2-oxo-3-(1-naphthoyl)amino-5-methoxyacetyl-2,3,4,5-tetrahydro-1H-1,5-benzodiazepine-1-acetylamino]4-oxo-butyric acid]",3500,2000,–,–,–,3700
CC(=O)N1C[C@H](NC(=O)c2ccc3ccccc3c2)C(=O)N(CC(=O)N[C@H](C=O)CC(=O)O)c2ccccc21 [Compound 605n],> 20000,2100,–,–,–,–
"O=C[C@H](CC(=O)O)NC(=O)[C@@H]1CCCN2C(=O)CC[C@H](NC(=O)c3ccc(NC(=O)Cc4ccccc4)cc3)C(=O)N12 [Compound 486, [3S(1S,9S)]3-{6,10-Dioxo-1,2,3,4,7,8,9,10-octahydro-9-[4-(phenylacetamido)benzamido]-6H-pyridazino[1,2-a][1,2]diazepine-1-carboxamido}-4-oxobutanoic acid]",500,480,–,–,–,570
"O=C[C@H](CC(=O)O)NC(=O)CN1C(=O)[C@@H](NC(=O)c2ccccc2)CN(C(=O)CO)c2ccccc21 [Compound 668, (3S)-3-[(3S)-2-Oxo-3-benzoylamino-5-(2-hydroxy)acetyl-2,3,4,5-tetrahydro-1H-1,5-benzodiazepine-1-acetylamino]-4-oxo-butyric acid]",–,–,3700,5200,–,–
"Cc1cc(C(=O)N[C@H]2CN(C(=O)CO)c3ccccc3N(CC(=O)N[C@H](C=O)CC(=O)O)C2=O)cc(C)c1O [Compound 691a, (3S)-3-[(3S)-2-Oxo-3-(3,5-dimethyl-4-hydroxybenzoyl)amino-5-hydroxyacetyl-2,3,4,5-tetrahydro-1H-1,5-benzodiazepine-1-acetylamino]-4-oxo-butyric acid]",–,–,1200,2900,–,–
O=C(O)C[C@H](NC(=O)[C@@H]1CCCN2C(=O)CC[C@H](NC(=O)CCc3ccccc3)C(=O)N12)C(=O)c1ncc(-c2c(Cl)cccc2Cl)o1 [Compound 137],14000,1700,–,–,–,–
Cc1nc(C)c(C(=O)N[C@H]2CCC(=O)N3CCC[C@@H](C(=O)N[C@H](C=O)CC(=O)O)N3C2=O)s1 [Compound 423],1500,2100,–,–,–,1800
COc1cccc2nc(C(=O)[C@H](CC(=O)O)NC(=O)[C@@H]3CCCN4C(=O)CC[C@H](NC(=O)CCc5ccccc5)C(=O)N34)oc12 [Compound 135a],5000,2800,–,–,–,–
"O=C[C@H](CC(=O)O)NC(=O)[C@@H]1CCCN2C(=O)CC[C@H](NC(=O)c3cc(Cl)c(O)c(Cl)c3)C(=O)N12 [Compound 214k, [3S(1S,9S)]3-(9-(3,5-Dichloro-4-hydroxybenzoyl)amino-6,10-dioxo-1,2,3,4,7,8,9,10-octahydro-6H-pyridazino[1,2-a][1,2]diazepine-1-carboxamido)-4-oxobutanoic acid]",–,–,580,500,–,–
"O=C[C@H](CC(=O)O)NC(=O)[C@@H]1CCCN2C(=O)CC[C@H](NC(=O)CCc3ccccc3)C(=O)N12 [Compound 47a, [3S(1S,9S)]3-(6,10-Dioxo-octahydro-9-(3-phenylpropionylamino)-6H-pyridazino[1,2-a][1,2]diazepine-1-carboxamido)-4-oxobutanoic acid]",5100,2600,–,–,–,–
"O=C[C@H](CC(=O)O)NC(=O)[C@@H]1CCCN2C(=O)CC[C@H](NC(=O)c3cccc4ccccc34)C(=O)N12 [Compound 408, [3S(1S,9S)]3-[6,10-Dioxo-9-(naphth-1-oylamino)-1,2,3,4,7,8,9,10-octahydro-6H-pyridazino[1,2-a][1,2]diazepine-1-carboxamido]-4-oxobutanoic acid]",1000,1100,–,–,–,–
"CC(=O)Nc1cccc(C(=O)N[C@H]2CCC(=O)N3CCC[C@@H](C(=O)N[C@H](C=O)CC(=O)O)N3C2=O)c1 [Compound 450, [3S(1S,9S)]3-{9-[(3-Acetamido)benzamido]-6,10-dioxo-1,2,3,4,7,8,9,10-octahydro-6H-pyridazino[1,2-a][1,2]diazepine-1-carboxamido}-4-oxobutanoic acid]",2200,800,–,–,1700,–
